According to article PMC9516332 (Frontiers in Oncology, 2022):
Where two headings read alike, the source gives them in different places.

Assays:
134 cancer cell lines = experiment: Cell viability assay (ATPlite, 72 hours), IC50 on cancer cell line panel
[1] = biological target: panel of 255 wild-type kinases (Homo sapiens, UniProt P06241); experiment: Kinase panel profiling at 1 µmol/L (MSA or IMAP), percentage inhibition; format: biochemical; conditions: kinase FYN [isoform a]; 1 µmol/L single concentration; read-out: %-inhibition at 1 µmol/L, FYN [isoform a]
[2] = biological target: panel of 255 wild-type kinases (Homo sapiens, UniProt Q16816); experiment: as above; format: biochemical; conditions: kinase PHKG1; 1 µmol/L single concentration; read-out: %-inhibition at 1 µmol/L, PHKG1
[3] = biological target: panel of 255 wild-type kinases (Homo sapiens, UniProt Q9H422); experiment: as above; format: biochemical; conditions: kinase HIPK3; 1 µmol/L single concentration; read-out: %-inhibition at 1 µmol/L, HIPK3
[4] = biological target: panel of 255 wild-type kinases (Homo sapiens, UniProt Q13882); experiment: as above; format: biochemical; conditions: BRK kinase assay; 1 µmol/L single concentration; read-out: %-inhibition BRK
[5] = biological target: panel of 255 wild-type kinases (Homo sapiens, UniProt P48729); experiment: as above; format: biochemical; conditions: kinase CK1α; 1 µmol/L single concentration; read-out: %-inhibition at 1 µmol/L, CK1α

IC50 (134 cancer cell lines; Homo sapiens, NCCIT, read-out: IC50 in cell proliferation assay, NCC-IT cell line): 10.6 µM
IC50 (134 cancer cell lines; Homo sapiens, NCI-H82, read-out: IC50 in cell proliferation assay, cell line NCI-H82): > 31.6 µM
IC50 (134 cancer cell lines; Homo sapiens, NCI-H460, read-out: IC50 in cell proliferation assay, NCI-H460 cell line): 11.1 µM
IC50 (134 cancer cell lines; Homo sapiens, NCI-H661, read-out: IC50 in cell proliferation assay, NCI-H661 cell line): 3.22 µM
IC50 (134 cancer cell lines; Homo sapiens, NCI-H716, read-out: IC50 in cell proliferation assay, cell line NCI-H716 (FGFR2-COL14A1)): 5.31 µM
IC50 (134 cancer cell lines; Homo sapiens, NCI-H1650, read-out: IC50 in cell proliferation assay, NCI-H1650 cell line (EGFR exon19del)): 11 µM
IC50 (134 cancer cell lines; Homo sapiens, NCI-H1975, read-out: IC50 in cell proliferation assay, NCI-H1975 cell line (EGFR p.L858R + p.T790M)): 7.77 µM
IC50 (134 cancer cell lines; Homo sapiens, NCI-H2228, read-out: IC50 in cell proliferation assay, NCI-H2228 cell line (EML4-ALK)): 13.8 µM
IC50 (134 cancer cell lines; Homo sapiens, OVCAR-3, read-out: IC50 in cell proliferation assay, cell line OVCAR-3): 0.617 µM
IC50 (134 cancer cell lines; Homo sapiens, PFSK-1, read-out: IC50 in cell proliferation assay, cell line PFSK-1): 13.1 µM
IC50 (134 cancer cell lines; Homo sapiens, RL95-2, read-out: IC50 in cell proliferation assay, cell line RL95-2 (EGFR p.A289V)): 3.6 µM
IC50 (134 cancer cell lines; Homo sapiens, RPMI-7951, read-out: IC50 in cell proliferation assay, cell line RPMI-7951 (BRAF p.V600E)): 2.81 µM
IC50 (134 cancer cell lines; Homo sapiens, RS4-11, read-out: IC50 in cell proliferation assay, cell line RS4;11): 9.2 µM
IC50 (134 cancer cell lines; Homo sapiens, Rec1, read-out: IC50 in cell proliferation assay, cell line REC-1): 14.4 µM
IC50 (134 cancer cell lines; Homo sapiens, SHP77, read-out: IC50 in cell proliferation assay, cell line SHP-77): > 31.6 µM
IC50 (134 cancer cell lines; Homo sapiens, SK-BR-3, read-out: IC50 in cell proliferation assay, cell line SK-BR-3 (ERBB2 amplification)): 2.33 µM
IC50 (134 cancer cell lines; Homo sapiens, SK-N-AS, read-out: IC50 in cell proliferation assay, cell line SK-N-AS): > 31.6 µM
IC50 (134 cancer cell lines; Homo sapiens, SK-N-FI, read-out: IC50 in cell proliferation assay, cell line SK-N-FI): > 31.6 µM
IC50 (134 cancer cell lines; Homo sapiens, SK-N-MC, read-out: IC50 in cell proliferation assay, cell line SK-N-MC): 12.2 µM
IC50 (134 cancer cell lines; Homo sapiens, SK-N-SH, read-out: IC50 in cell proliferation assay, cell line SK-N-SH (ALK p.F1174L)): 12.6 µM
IC50 (134 cancer cell lines; Homo sapiens, SNU-5, read-out: IC50 in cell proliferation assay, cell line SNU-5 (MET amplification)): 11.2 µM
IC50 (134 cancer cell lines; Homo sapiens, SNU-16, read-out: IC50 in cell proliferation assay, cell line SNU-16 (FGFR2 amplification)): > 31.6 µM
IC50 (134 cancer cell lines; Homo sapiens, SNU-C2B, read-out: IC50 in cell proliferation assay, cell line SNU-C2B (EGFR p.R165Q)): 9.36 µM
IC50 (134 cancer cell lines; Homo sapiens, SU-DHL-1, read-out: IC50 in cell proliferation assay, cell line SU-DHL-1 (NPM1-ALK)): 22.6 µM
IC50 (134 cancer cell lines; Homo sapiens, SU-DHL-6, read-out: IC50 in cell proliferation assay, cell line SU-DHL-6): 0.00177 µM
IC50 (134 cancer cell lines; Homo sapiens, SUP-T1, read-out: IC50 in cell proliferation assay, cell line SUP-T1): 29.3 µM
IC50 (134 cancer cell lines; Homo sapiens, SW48, read-out: IC50 in cell proliferation assay, cell line SW48 (EGFR p.G719S)): 5.94 µM
IC50 (134 cancer cell lines; Homo sapiens, SW480, read-out: IC50 in cell proliferation assay, cell line SW480): 30.5 µM
IC50 (134 cancer cell lines; Homo sapiens, SW626, read-out: IC50 in cell proliferation assay, cell line SW626): 24.9 µM
IC50 (134 cancer cell lines; Homo sapiens, SW780, read-out: IC50 in cell proliferation assay, cell line SW780 (FGFR3-BAIAP2L1)): > 31.6 µM
IC50 (134 cancer cell lines; Homo sapiens, SW837, read-out: IC50 in cell proliferation assay, cell line SW837): 25.9 µM
IC50 (134 cancer cell lines; Homo sapiens, SW872, read-out: IC50 in cell proliferation assay, cell line SW872 (BRAF p.V600E)): 23.7 µM
IC50 (134 cancer cell lines; Homo sapiens, SW900, read-out: IC50 in cell proliferation assay, cell line SW900): 7.57 µM
IC50 (134 cancer cell lines; Homo sapiens, SW948, read-out: IC50 in cell proliferation assay, cell line SW948): 12.7 µM
IC50 (134 cancer cell lines; Homo sapiens, SW982, read-out: IC50 in cell proliferation assay, cell line SW982 (BRAF p.V600E)): 4.21 µM
IC50 (134 cancer cell lines; Homo sapiens, SW-620, read-out: IC50 in cell proliferation assay, cell line SW620): 20.1 µM
IC50 (134 cancer cell lines; Homo sapiens, T98G, read-out: IC50 in cell proliferation assay, cell line T98G): 4.8 µM
IC50 (134 cancer cell lines; Homo sapiens, TCC-SUP, read-out: IC50 in cell proliferation assay, cell line TCCSUP): 21.6 µM
IC50 (134 cancer cell lines; Homo sapiens, THP-1, read-out: IC50 in cell proliferation assay, cell line THP-1): 0.15 µM
IC50 (134 cancer cell lines; Homo sapiens, U2OS, read-out: IC50 in cell proliferation assay, cell line U2OS): 8.82 µM
IC50 (134 cancer cell lines; Homo sapiens, U-87 MG, read-out: IC50 in cell proliferation assay, cell line U-87MG ATCC): 10.5 µM
IC50 (134 cancer cell lines; Homo sapiens, U-118-MG, read-out: IC50 in cell proliferation assay, cell line U-118MG): > 31.6 µM
IC50 (134 cancer cell lines; Homo sapiens, UMUC3, read-out: IC50 in cell proliferation assay, cell line UM-UC-3): 25.3 µM
IC50 (134 cancer cell lines; Hs766T, read-out: IC50 in cell proliferation assay, Hs 766T cell line): 18.6 µM
IC50 (134 cancer cell lines; L-82, read-out: IC50 in cell proliferation assay, L-82 cell line (NPM1-ALK)): 22.1 µM
IC50 (134 cancer cell lines; Rh30, read-out: IC50 in cell proliferation assay, cell line Rh30): 12.2 µM
IC50 (134 cancer cell lines; read-out: IC50 in cell proliferation assay, 11-18 cell line (EGFR p.L858R)): 12.9 µM
IC50 (134 cancer cell lines; read-out: IC50 in cell proliferation assay, Hs 852.T cell line): 21.4 µM
IC50 (134 cancer cell lines; read-out: IC50 in cell proliferation assay, JAR cell line): 0.234 µM
IC50 (134 cancer cell lines; read-out: IC50 in cell proliferation assay, cell line 5637): 28 µM
IC50 (134 cancer cell lines; read-out: IC50 in cell proliferation assay, cell line A-388): 12.4 µM
IC50 (134 cancer cell lines; read-out: IC50 in cell proliferation assay, cell line DB): > 31.6 µM
IC50 (134 cancer cell lines; read-out: IC50 in cell proliferation assay, cell line DEL (NPM1-ALK)): > 31.6 µM
IC50 (134 cancer cell lines; read-out: IC50 in cell proliferation assay, cell line ES-2 (BRAF p.V600E)): > 31.6 µM
IC50 (134 cancer cell lines; read-out: IC50 in cell proliferation assay, cell line PA-1): 10.7 µM
IC50 (134 cancer cell lines; read-out: IC50 in cell proliferation assay, cell line PC-3): 5.81 µM
IC50 (134 cancer cell lines; read-out: IC50 in cell proliferation assay, cell line RD): 27.6 µM
IC50 (134 cancer cell lines; read-out: IC50 in cell proliferation assay, cell line RKO (BRAF p.V600E)): 8.82 µM
IC50 (134 cancer cell lines; read-out: IC50 in cell proliferation assay, cell line RL): 24 µM
IC50 (134 cancer cell lines; read-out: IC50 in cell proliferation assay, cell line RT-4 (FGFR3-TACC3)): 9.68 µM
IC50 (134 cancer cell lines; read-out: IC50 in cell proliferation assay, cell line SR (NPM1-ALK)): 14.1 µM
IC50 (134 cancer cell lines; read-out: IC50 in cell proliferation assay, cell line T24): 31.2 µM
IC50 (134 cancer cell lines; read-out: IC50 in cell proliferation assay, cell line TT (RET p.C634W)): > 31.6 µM
IC50 (134 cancer cell lines; read-out: IC50 in cell proliferation assay, cell line VA-ES-BJ): 2.94 µM
inhibition at 1 µM [1]: 0.67%
inhibition at 1 µM [2]: -1.8%
inhibition at 1 µM [3]: 3.5%
inhibition at 1 µM [4]: 4.54%
inhibition at 1 µM [5]: -2%
Compound: C[C@H](Nc1ncnc2nc[nH]c12)c1cc2cccc(Cl)c2c(=O)n1-c1ccccc1 [duvelisib]
